Laboratory results: patent US7074789B2, “Kinase inhibitors” (Amgen Inc., priority 1999, dated 2006)

Experiments:
Assay type in all cases: biochemical
ErbB4 = molecular target: T1, ErbB4 (Homo sapiens, UniProt Q15303); assay: Kinase inhibition assay (33P transfer), ErbB4; conditions: read-out: ErbB4-1
T1 construct: Kinases are expressed as either kinase domains or full length constructs; made in house

Fyn = molecular target: T2, Fyn (Homo sapiens, UniProt P06241); assay: Kinase inhibition assay (33P transfer), Fyn; conditions: read-out: Fyn-1
T2 construct: Kinases are expressed as either kinase domains or full length constructs; made in house
T2 sequence (P06241 whole entry, species assumed, the tested form may be a part): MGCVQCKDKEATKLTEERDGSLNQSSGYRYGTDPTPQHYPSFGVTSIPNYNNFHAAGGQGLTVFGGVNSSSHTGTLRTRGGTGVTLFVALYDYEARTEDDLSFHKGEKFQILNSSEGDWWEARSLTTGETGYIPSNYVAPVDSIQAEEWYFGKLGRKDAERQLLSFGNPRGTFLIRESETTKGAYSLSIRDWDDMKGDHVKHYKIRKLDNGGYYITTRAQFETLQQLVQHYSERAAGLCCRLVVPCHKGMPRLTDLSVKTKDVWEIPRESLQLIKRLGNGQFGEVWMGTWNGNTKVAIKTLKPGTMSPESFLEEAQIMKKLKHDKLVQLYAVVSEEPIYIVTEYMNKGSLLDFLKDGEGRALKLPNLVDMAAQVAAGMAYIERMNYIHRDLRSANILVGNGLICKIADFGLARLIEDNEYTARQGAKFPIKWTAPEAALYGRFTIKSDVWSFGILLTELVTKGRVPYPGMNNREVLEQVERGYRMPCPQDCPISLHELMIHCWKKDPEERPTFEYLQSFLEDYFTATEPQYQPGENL
In short: (§1)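 Recombinant kinase domains or full-length GST- or His-tagged constructs, from E. coli or baculovirus/High Five cells, sometimes with regulatory polypeptides. Transfer of 33P from ATP to plate-bound poly(Glu,Tyr) 4:1 or poly(Arg,Ser) 3:1 counted by liquid scintillation after phosphoric acid wash; IC50 is the concentration halving incorporation.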

EPHB4 = molecular target: T3, EPHB4 (Homo sapiens, UniProt P54760); assay: Kinase inhibition assay (33P transfer), EPHB4; conditions: read-out: EPHB4-1
T3 construct: Kinases are expressed as either kinase domains or full length constructs; made in house
T3 sequence (P54760 16-987): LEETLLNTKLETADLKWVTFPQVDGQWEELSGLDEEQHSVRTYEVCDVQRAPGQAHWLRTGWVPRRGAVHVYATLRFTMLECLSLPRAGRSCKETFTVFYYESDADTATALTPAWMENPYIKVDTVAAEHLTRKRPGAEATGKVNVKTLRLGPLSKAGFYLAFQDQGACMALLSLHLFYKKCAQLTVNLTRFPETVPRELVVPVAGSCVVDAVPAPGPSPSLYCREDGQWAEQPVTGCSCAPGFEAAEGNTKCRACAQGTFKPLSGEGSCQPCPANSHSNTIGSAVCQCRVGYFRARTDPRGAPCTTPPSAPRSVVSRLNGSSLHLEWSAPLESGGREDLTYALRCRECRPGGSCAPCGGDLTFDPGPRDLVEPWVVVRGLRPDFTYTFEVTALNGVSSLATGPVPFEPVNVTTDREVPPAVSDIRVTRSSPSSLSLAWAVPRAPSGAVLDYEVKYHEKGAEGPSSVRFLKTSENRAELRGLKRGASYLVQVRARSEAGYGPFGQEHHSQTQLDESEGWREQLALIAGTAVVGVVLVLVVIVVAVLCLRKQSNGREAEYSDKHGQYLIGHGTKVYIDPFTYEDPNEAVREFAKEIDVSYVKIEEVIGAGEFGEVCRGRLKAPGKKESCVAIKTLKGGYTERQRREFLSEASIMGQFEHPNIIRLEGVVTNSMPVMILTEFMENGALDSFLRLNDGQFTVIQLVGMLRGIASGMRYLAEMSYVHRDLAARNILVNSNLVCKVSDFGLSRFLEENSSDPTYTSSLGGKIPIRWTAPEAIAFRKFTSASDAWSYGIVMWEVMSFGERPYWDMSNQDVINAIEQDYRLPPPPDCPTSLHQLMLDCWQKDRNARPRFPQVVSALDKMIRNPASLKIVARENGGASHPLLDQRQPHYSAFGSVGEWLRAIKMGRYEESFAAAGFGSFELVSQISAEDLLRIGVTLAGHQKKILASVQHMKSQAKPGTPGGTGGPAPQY

Itk = molecular target: T4, Itk (Homo sapiens, UniProt Q08881); assay: Kinase inhibition assay (33P transfer), Itk; conditions: Table 3; read-out: Itk-1
T4 construct: Kinases are expressed as either kinase domains or full length constructs; made in house
T4 sequence (Q08881 1-620): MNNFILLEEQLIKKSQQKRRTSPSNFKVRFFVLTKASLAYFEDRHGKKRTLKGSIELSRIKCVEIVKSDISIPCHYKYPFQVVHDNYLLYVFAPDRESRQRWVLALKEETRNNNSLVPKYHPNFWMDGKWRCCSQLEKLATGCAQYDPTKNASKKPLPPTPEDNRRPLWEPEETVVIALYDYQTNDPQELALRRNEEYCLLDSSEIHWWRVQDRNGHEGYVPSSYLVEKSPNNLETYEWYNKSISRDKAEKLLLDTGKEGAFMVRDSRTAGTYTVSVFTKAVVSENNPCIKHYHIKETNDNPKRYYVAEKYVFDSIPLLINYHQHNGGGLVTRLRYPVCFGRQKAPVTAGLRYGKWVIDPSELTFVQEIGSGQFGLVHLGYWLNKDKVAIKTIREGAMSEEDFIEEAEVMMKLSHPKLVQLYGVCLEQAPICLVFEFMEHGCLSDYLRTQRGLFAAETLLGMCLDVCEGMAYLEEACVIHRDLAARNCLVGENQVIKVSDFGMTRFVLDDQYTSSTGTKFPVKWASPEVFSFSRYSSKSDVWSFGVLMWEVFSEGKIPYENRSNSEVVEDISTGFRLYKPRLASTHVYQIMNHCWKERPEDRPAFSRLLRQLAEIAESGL
In short: as §1

Src = molecular target: T5, Src (Homo sapiens, UniProt P12931); assay: Kinase inhibition assay (33P transfer), Src; conditions: Table 6, Src-1 kinase inhibition class
T5 construct: Kinases are expressed as either kinase domains or full length constructs; made in house
T5 sequence (P12931 whole entry, species assumed, the tested form may be a part): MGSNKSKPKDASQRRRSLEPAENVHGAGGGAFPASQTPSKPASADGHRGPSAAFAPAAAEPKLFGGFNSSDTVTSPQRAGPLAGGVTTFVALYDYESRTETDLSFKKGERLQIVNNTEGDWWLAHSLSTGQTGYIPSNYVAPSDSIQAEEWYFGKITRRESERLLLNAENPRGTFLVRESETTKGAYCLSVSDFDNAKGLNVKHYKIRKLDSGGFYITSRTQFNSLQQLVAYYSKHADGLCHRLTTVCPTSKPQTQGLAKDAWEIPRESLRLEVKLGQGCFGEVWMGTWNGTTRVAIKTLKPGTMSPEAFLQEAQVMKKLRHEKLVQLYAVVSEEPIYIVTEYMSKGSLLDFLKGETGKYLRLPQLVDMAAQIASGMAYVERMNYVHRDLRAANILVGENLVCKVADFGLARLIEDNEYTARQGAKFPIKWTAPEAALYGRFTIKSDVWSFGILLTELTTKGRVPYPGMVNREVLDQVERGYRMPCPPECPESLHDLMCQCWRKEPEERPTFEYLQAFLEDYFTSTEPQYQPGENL
In short: as §1

c-Met = molecular target: T6, c-Met (Homo sapiens, UniProt P08581); assay: Kinase inhibition assay (33P transfer), c-Met; conditions: Table 2, kinase inhibition class; read-out: Met-1
T6 construct: Kinases are expressed as either kinase domains or full length constructs; made in house
T6 sequence (P08581 25-1390): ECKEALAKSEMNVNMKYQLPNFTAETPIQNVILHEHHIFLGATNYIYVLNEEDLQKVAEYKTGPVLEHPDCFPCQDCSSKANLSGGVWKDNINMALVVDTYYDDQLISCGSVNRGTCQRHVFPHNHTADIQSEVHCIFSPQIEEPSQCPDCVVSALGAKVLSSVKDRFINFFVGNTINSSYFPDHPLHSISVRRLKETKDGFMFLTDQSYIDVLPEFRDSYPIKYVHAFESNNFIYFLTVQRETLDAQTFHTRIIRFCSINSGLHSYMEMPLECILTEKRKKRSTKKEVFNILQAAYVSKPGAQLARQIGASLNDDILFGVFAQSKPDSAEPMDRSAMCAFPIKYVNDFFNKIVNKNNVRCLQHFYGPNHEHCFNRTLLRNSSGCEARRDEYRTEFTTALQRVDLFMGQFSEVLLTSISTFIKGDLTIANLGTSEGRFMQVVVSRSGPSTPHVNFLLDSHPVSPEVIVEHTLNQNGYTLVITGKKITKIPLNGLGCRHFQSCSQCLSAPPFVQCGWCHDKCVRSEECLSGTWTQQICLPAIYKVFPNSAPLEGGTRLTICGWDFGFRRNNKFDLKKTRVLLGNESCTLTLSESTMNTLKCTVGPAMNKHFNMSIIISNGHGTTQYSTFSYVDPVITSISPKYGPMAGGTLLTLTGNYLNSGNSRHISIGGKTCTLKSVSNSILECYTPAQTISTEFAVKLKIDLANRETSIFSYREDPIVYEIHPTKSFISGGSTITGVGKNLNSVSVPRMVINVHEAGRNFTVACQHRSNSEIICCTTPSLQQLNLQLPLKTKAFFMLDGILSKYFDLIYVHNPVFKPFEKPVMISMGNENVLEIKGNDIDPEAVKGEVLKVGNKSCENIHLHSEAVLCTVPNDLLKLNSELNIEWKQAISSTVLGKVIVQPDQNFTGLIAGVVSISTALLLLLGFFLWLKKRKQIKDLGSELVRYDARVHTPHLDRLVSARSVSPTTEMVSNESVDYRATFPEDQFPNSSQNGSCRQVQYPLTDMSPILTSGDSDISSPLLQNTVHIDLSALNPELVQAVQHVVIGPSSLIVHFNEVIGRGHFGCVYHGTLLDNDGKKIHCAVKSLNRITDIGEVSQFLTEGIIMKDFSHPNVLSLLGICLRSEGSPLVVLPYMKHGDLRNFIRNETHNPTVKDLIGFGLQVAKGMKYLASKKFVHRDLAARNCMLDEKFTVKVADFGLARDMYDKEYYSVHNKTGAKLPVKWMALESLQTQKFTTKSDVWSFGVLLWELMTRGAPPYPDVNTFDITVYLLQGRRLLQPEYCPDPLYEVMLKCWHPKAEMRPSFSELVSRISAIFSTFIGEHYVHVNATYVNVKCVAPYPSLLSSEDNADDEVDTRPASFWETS
In short: as §1

Hck-1 = molecular target: T7, Hck-1 (Homo sapiens, UniProt P08631); assay: Kinase inhibition assay (33P transfer), Hck; conditions: Table 6, Hck-1 kinase inhibition class
T7 construct: Kinases are expressed as either kinase domains or full length constructs; made in house
T7 sequence (P08631 whole entry, the tested form may be a part): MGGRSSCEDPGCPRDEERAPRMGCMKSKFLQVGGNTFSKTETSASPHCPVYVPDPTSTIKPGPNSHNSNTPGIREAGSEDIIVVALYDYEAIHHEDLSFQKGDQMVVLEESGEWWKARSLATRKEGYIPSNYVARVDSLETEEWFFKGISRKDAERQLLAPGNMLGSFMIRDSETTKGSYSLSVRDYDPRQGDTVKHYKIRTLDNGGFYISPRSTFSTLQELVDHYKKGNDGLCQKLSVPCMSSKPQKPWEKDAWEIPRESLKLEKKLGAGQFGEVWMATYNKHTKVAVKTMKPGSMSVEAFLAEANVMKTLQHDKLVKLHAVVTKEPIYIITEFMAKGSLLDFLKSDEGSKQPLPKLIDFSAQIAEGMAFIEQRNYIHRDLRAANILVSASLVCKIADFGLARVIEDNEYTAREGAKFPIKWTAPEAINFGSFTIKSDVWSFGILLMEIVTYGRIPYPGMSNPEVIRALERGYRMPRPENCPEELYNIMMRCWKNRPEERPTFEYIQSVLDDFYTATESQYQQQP

EGFR = molecular target: T8, EGFR (Homo sapiens, UniProt P00533); assay: Kinase inhibition assay (33P transfer), EGFR; conditions: Table 2, kinase inhibition class; read-out: EGFR-1
T8 construct: Kinases are expressed as either kinase domains or full length constructs; made in house
T8 sequence (P00533 25-1210, species assumed): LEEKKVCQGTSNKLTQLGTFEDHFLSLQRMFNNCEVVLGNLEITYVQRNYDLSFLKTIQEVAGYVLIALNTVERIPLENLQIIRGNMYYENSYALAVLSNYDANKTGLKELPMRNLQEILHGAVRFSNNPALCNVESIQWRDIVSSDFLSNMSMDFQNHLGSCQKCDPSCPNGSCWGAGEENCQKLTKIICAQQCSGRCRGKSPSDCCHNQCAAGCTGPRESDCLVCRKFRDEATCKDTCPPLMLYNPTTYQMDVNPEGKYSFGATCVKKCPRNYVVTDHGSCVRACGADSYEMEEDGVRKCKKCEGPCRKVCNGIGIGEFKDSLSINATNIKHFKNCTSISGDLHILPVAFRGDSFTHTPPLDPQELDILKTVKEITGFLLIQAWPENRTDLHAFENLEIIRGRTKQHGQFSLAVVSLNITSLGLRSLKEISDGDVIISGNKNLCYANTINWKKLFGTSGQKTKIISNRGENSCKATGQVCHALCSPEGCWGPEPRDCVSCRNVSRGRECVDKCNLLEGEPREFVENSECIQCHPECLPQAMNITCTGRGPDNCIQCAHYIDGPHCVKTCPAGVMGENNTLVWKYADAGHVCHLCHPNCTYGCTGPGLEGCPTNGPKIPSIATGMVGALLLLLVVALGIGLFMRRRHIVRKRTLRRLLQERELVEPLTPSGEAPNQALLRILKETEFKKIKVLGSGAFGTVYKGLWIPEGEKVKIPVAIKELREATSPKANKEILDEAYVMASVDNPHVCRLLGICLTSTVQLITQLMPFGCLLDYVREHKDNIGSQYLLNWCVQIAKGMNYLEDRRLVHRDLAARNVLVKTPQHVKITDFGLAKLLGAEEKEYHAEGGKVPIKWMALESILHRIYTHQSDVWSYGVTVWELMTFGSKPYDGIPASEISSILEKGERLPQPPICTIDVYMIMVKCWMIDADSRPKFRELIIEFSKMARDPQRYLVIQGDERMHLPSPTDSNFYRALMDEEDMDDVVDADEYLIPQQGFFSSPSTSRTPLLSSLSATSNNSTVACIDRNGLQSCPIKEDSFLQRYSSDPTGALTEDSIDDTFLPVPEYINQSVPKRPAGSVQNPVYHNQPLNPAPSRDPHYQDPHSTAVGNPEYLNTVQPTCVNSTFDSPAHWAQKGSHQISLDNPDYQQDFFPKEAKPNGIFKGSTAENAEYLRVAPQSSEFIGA
In short: as §1

IGFR-1 = molecular target: T9, IGFR-1 (Homo sapiens, UniProt P08069); assay: Kinase inhibition assay (33P transfer), IGFR-1; conditions: Table 2, kinase inhibition class
T9 construct: Kinases are expressed as either kinase domains or full length constructs; made in house

SMILES	IC50 (ErbB4) [µM]	IC50 (Fyn) [µM]	IC50 (EPHB4) [µM]	IC50 (Itk) [µM]	IC50 (Src) [µM]	IC50 (c-Met) [µM]	IC50 (Hck-1) [µM]	IC50 (EGFR) [µM]	IC50 (IGFR-1) [µM]
COc1cc(Nc2ncnc(Nc3cc(F)ccc3F)n2)cc(OC)c1OC [Compound 316]	> 11.6	8.99 to 11.6	8.99 to 11.6	> 11.6	8.99 to 11.6	> 11.6	> 11.6	1.03 to 6.16	< 1.03
COc1cc(Nc2ncnc(Nc3cc(-c4cccs4)n[nH]3)n2)cc(OC)c1OC [Compound 318]	< 0.94	< 0.94	< 0.94	5.64 to 8.23	< 0.94	< 0.94	0.94 to 5.64	< 0.94	< 0.94
COc1cc(Nc2ncnc(N(CC(=O)O)c3ccc4c(c3)OCO4)n2)cc(OC)c1OC [Compound 319]	> 9.88	> 9.88	> 9.88	> 9.88	> 9.88	> 9.88	> 9.88	0.878 to 5.27	> 9.88
COc1ccc(Nc2ncnc(N(CC(=O)O)c3ccc4c(c3)OCO4)n2)cc1OC [Compound 320]	> 10.6	> 10.6	> 10.6	> 10.6	> 10.6	5.64 to 8.23	> 10.6	0.94 to 5.64	> 10.6
COCCOc1ccc(Nc2ncnc(Nc3ccc4[nH]ccc4c3)n2)cc1OCCOC [Compound 321]	> 9.99	> 9.99	> 9.99	> 9.99	0.888 to 5.33	> 9.99	> 9.99	< 0.888	5.33 to 7.77
COc1cc(Nc2ncnc(-n3c(=O)[nH]c4ccccc43)n2)cc(OC)c1OC [Compound 325]	1.01 to 6.09	6.09 to 8.87	> 11.4	> 11.4	> 11.4	> 11.4	> 11.4	8.87 to 11.4	> 11.4
COc1cc(Nc2ncnc(-n3c(NC(C)=O)nc4ccccc43)n2)cc(OC)c1OC [Compound 334]	> 10.3	> 10.3	5.51 to 8.04	0.919 to 5.51	> 10.3	> 10.3	> 10.3	> 10.3	< 0.919
COc1cc(Nc2ncnc(N(c3ccccc3)c3nc4ccccc4[nH]3)n2)cc(OC)c1OC [Compound 335]	> 9.58	> 9.58	0.852 to 5.11	> 9.58	5.11 to 7.45	> 9.58	> 9.58	< 0.852	> 9.58
COc1cc(Nc2ncnc(-n3c(Nc4ccccc4)nc4ccccc43)n2)cc(OC)c1OC [Compound 336]	> 9.58	> 9.58	> 9.58	> 9.58	> 9.58	> 9.58	> 9.58	> 9.58	> 9.58
COc1ccc(Nc2ncnc(Nc3cc(-c4ccco4)n[nH]3)n2)cc1OC [Compound 337]	1.05 to 6.33	1.05 to 6.33	1.05 to 6.33	1.05 to 6.33	1.05 to 6.33	< 1.05	> 11.9	1.05 to 6.33	< 1.05
COc1ccc2c(c1)c(CCNC(C)=O)cn2-c1ncnc(Nc2cc(OC)c(OC)c(OC)c2)n1 [Compound 339]	> 9.14	> 9.14	> 9.14	> 9.14	> 9.14	> 9.14	> 9.14	> 9.14	> 9.14
c1coc(-c2cc(Nc3ncnc(Nc4ccc(N5CCOCC5)cc4)n3)[nH]n2)c1 [Compound 340]	0.989 to 5.93	0.989 to 5.93	0.989 to 5.93	> 11.1	> 11.1	< 0.989	> 11.1	5.93 to 8.65	< 0.989
NC(=O)c1cccc(Nc2ncnc(Nc3cc(-c4ccco4)n[nH]3)n2)c1 [Compound 342]	1.1 to 6.62	1.1 to 6.62	1.1 to 6.62	1.1 to 6.62	> 12.4	1.1 to 6.62	6.62 to 9.66	< 1.1	1.1 to 6.62
COc1cc(Nc2ncnc(N3CCCc4ccccc43)n2)cc(OC)c1OC [Compound 609]	> 11.4	< 1.02	> 11.4	> 11.4	< 1.02	1.02 to 6.1	> 11.4	< 1.02	> 11.4
COc1ccc(Nc2ccc(Nc3ncnc(Nc4cc(OC)c(OC)c(OC)c4)n3)cc2)cc1 [Compound 922]	< 0.843	0.843 to 5.06	5.06 to 7.38	> 9.48	0.843 to 5.06	5.06 to 7.38	> 9.48	0.843 to 5.06	0.843 to 5.06
COc1cc(Nc2ncnc(Nc3ccc(C)cc3)n2)cc(OC)c1OC [Compound 930]	1.09 to 6.53	< 1.09	6.53 to 9.53	> 12.2	< 1.09	9.53 to 12.2	6.53 to 9.53	< 1.09	1.09 to 6.53
COc1ccc(Nc2ncnc(Nc3cc(OC)c(OC)c(OC)c3)n2)cc1O [Compound 931]	1 to 6.01	< 1	1 to 6.01	> 11.3	< 1	> 11.3	1 to 6.01	< 1	1 to 6.01
COc1cc(Nc2ncnc(Nc3ccc(C)c(N)c3)n2)cc(OC)c1OC [Compound 935]	1.05 to 6.28	< 1.05	1.05 to 6.28	6.28 to 9.15	< 1.05	> 11.8	6.28 to 9.15	< 1.05	1.05 to 6.28
COc1cc(Nc2ncnc(Nc3ccc(Br)c(Cl)c3)n2)cc(OC)c1OC [Compound 936]	0.857 to 5.14	< 0.857	< 0.857	5.14 to 7.5	< 0.857	> 9.64	5.14 to 7.5	< 0.857	< 0.857
COc1cc(Nc2ncnc(Nc3ccc(C)cc3F)n2)cc(OC)c1OC [Compound 937]	6.23 to 9.08	1.04 to 6.23	1.04 to 6.23	> 11.7	1.04 to 6.23	6.23 to 9.08	> 11.7	< 1.04	< 1.04
COc1cc(Nc2ncnc(Nc3nc4ccccc4n3C)n2)cc(OC)c1OC [Compound 938]	5.89 to 8.59	> 11	> 11	> 11	> 11	> 11	> 11	> 11	5.89 to 8.59
